Data reported in patent US20180318381A1, “Methods of Treatment of Rhabdomyolysis” (University of Pittsburgh - Of the Commonwealth System of …, priority 2015, published 2018).

How the values were obtained:
[1] = tested on: amyotrophic lateral sclerosis mouse model; conditions: ALS mouse model; cited from earlier work
mice treated with azide = conditions: supplementation at the same time as azide; cited from earlier work
Friedrich's ataxia cells = conditions: in response to oxidative stress; cited from earlier work

For CCNC(=O)[C@]12CCC(C)(C)C[C@H]1[C@H]1C(=O)C=C3[C@@]4(C)C=C(C#N)C(=O)C(C)(C)[C@@H]4CC[C@@]3(C)[C@]1(C)CC2 [CDDO-EA, 2-cyano-3,12-dioxooleana-1,9-dien-28-oic acid-ethyl amide], the survival [1] is listed as “improve survival”.
In the case of CC(=O)OC[C@H]1O[C@@H](n2ccc(=O)[nH]c2=O)[C@H](OC(C)=O)[C@@H]1OC(C)=O [PN401, uridine triacetate], the “survival of the animals” value (mice treated with azide) is listed as “improved survival”.
For CC1(C)CC[C@]2(NC(=O)C(C)(F)F)CC[C@]3(C)[C@H](C(=O)C=C4[C@@]5(C)C=C(C#N)C(=O)C(C)(C)[C@@H]5CC[C@]43C)[C@@H]2C1 [RTA408, N-(2-cyano-3,12-dioxo-28-noroleana-1,9(11)-dien-17-yl)-2,2-difluoro-propanamide], the antioxidant gene expression (Friedrich's ataxia cells) is listed as “improve antioxidant gene expression”.
With CCCCCCC(=O)OCC(COC(=O)CCCCCC)OC(=O)CCCCCC [triheptanoin, 1,3-di(heptanoyloxy)propan-2-yl heptanoate] the “decrease in peak CK levels (trend)” value (patients with LC-FAODs; 7 subjects with peak CK before and after treatment, P=0.1279) was 68%, the “decline in hypoglycemia event rate per year” value (patients with LC-FAODs; 9 subjects with hypoglycemia problems, P=0.0091) was 96% and the hospitalizations (patients with LC-FAODs; LC-FAOD patients, FIG. 14) was “reduced hospitalizations”. For the same compound, the hypoglycemic hospitalizations (patients with LC-FAODs; LC-FAOD patients, FIG. 14) was “nearly eliminated”, the “number of days of hospital stay if hospitalized” value (patients with LC-FAODs; LC-FAOD patients, FIG. 14) was “reduced” and the “number of hospitalization days with rhabdomyolysis” value (patients with LC-FAODs; LC-FAOD patients, FIG. 14) was “decreased”. The “number of hospitalizations with rhabdomyolysis” value (patients with LC-FAODs; LC-FAOD patients, FIG. 14) was “did not reduce”, the “peak CK levels” value (patients with LC-FAODs; after treatment (from 85,855 before), 7 subjects) was 27,597 units and the “hypoglycemia event rate per year” value (patients with LC-FAODs; after treatment (vs 0.92 before), n=9) was 0.04 per year. For the same compound, the hypoglycemia-related hospitalization days/year (patients with LC-FAODs; after treatment (vs 8.42 before), n=9, P=0.0257) was 0.18 days/year, the hospitalization event rate (patients with LC-FAODs; after triheptanoin initiation (vs 1.94 before), n=16) was 1.26 and the rhabdomyolysis hospitalization days/year (patients with LC-FAODs; after triheptanoin initiation (vs 5.94 before), n=9, P=0.1224) was 2.36 days/year. The mean hospitalization days/year (patients with LC-FAODs; after triheptanoin initiation (vs 17.55 before), n=15) was 5.76 days/year, the hypoglycemia in patients (patients with LC-FAODs; patients having long chain FAODs) was “essentially eliminates hypoglycemia” and the episodes of rhabdomyolysis (patients with LC-FAODs; patients having long chain FAODs on triheptanoin) was “continue to have episodes of rhabdomyolysis”. For the same compound, the “decrease in mean hospitalization days/year” value (patients with LC-FAODs; period after triheptanoin initiation vs before, n=15, P=0.0242) was 67%.
